Experimental findings from US20090170768A1, “WATER-SOLUBLE CARBON NANOTUBE COMPOSITIONS FOR DRUG DELIVERY AND MEDICINAL APPLICATIONS” (William Marsh Rice University, priority 2007, published 2009) are described below.

The subject of one series is Tu167 cells. In words: MTT assay, in vitro cell killing in Tu167 cells. It is filed as cell-based. As for the experimental part: (§1) For the analyses, the analyses presented in FIGS. 1 and 2, the paclitaxel was dissolved in either acidic MeOH (FIG. 1) or neutral MeOH (FIG. 2) prior to association with the PEG-functionalized SWNTs. The MeOH was removed from the compositions by evaporation following sequestration of the paclitaxel by the PEG-functionalized SWNT matrix. MeOH removal was performed prior to MTT analysis. […] The control paclitaxel was dissolved in a cremaphor vehicle.

The nature of series [1]: Paclitaxel solubilization in water with or without PEG-functionalized carbon nanotubes.
In another series the test system is UMSCC1 cells. In words: MTT assay, in vitro cell killing in UMSCC1 cells. The note with it: Homo sapiens. The class given is cell-based. As for the experimental part:
as §1
For the analysis presented in FIG. 4, the paclitaxel was dissolved in EtOH prior to association with the PEG-functionalized SWNTs. The EtOH was removed from the compositions by evaporation following sequestration of the paclitaxel by the PEG-functionalized SWNT matrix. EtOH removal was performed prior to MTT analysis.
Background: Tetrazolium assays rely on reduction of a dye to a coloured formazan, in cell work by metabolically active cells.

Another series relates to cells. Kind of series: Intracellular delivery of FITC (cell fluorescence). It is filed as cell-based. The note with it: provided to cells. From the text: In certain embodiments, the compositions provide intracellular delivery of the at least one type of payload molecule. The intracellular delivery may occur in vitro or in vivo. […] Thus, the compositions provide intracellular delivery of the at least one type of payload molecule.

Read-outs that look alike come from different tables or passages of the source.

One may read the IC50 as the midpoint of a concentration-inhibition curve.

For the molecule `CC(=O)O[C@H]1C(=O)[C@@]2(C)[C@H]([C@H](OC(=O)c3ccccc3)[C@]3(O)C[C@H](OC(=O)[C@H](O)[C@@H](NC(=O)c4ccccc4)c4ccccc4)C(C)=C1C3(C)C)[C@]1(OC(C)=O)CO[C@@H]1C[C@@H]2O` [PACLITAXEL, paclitaxel], the IC50 was determined as 0.62 nM in the series on Tu167 cells (Tu167 cells, MTT, vehicle per row (cremaphor or aqueous), R^2 in parentheses, read-out: Tu167 IC50 (nm): R^2); 0.62 nM in the series on Tu167 cells (dissolved in cremaphor vehicle (FIG. 3), read-out: IC50 in Tu167 cells); 0.26 nM with UMSCC1 cells (UMSCC1, cremaphor vehicle (FIG. 5), read-out: IC50 in UMSCC1 cells); 0.26 nM in the series with UMSCC1 cells (UMSCC1 cells, MTT, vehicle per row (cremaphor or aqueous), R^2 in parentheses, read-out: UMSCCI IC50 (nm): R^2). In addition, the precipitation from solution result in series [1] (1 mg paclitaxel in 70 μL ethanol added to 1 mL of a solution containing PEG-functionalized carbon nanotubes) is on record as “no paclitaxel precipitates from solution”; in series [1] (1 mg paclitaxel in 70 μL ethanol added to 1 mL of water), “immediately precipitates from solution”.

fluorescein isothiocyanate [FITC]: in the series on cells, the intracellular fluorescence entry is on record as “no intracellular fluorescence was observed”.
